In PubChem BioAssay AID270 (DTP/NCI, 2004):
Where “and” joins values, the source holds several entries; their conditions need not be identical. Equal entries are not always repeated. Inconclusive results are not listed.

Test system: BDF1 mice, s.c. Lewis lung carcinoma, T/C %
Test: NCI In Vivo Anticancer Drug Screen. Data for tumor model Lewis Lung Carcinoma (subcutaneous) in B6D2F1 (BDF1) mice
In short: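 First, mice carry a transplantable tumor. Next, groups receive either compound or vehicle. Finally, survival or tumor dimensions in the dosed animals are divided by the corresponding control figure.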

[1] = endpoint: mean tumor weight, dose: 6.25 mg/kg/injection, schedule: Q01DX011 (ip), vehicle: saline, higher = larger tumour
[2] = endpoint: mean tumor weight, dose: 12.5 mg/kg/injection, schedule: Q01DX011 (ip), vehicle: saline, higher = larger tumour
[3] = endpoint: mean tumor weight, dose: 50.0 mg/kg/injection, schedule: Q01DX011 (ip), vehicle: saline, higher = larger tumour
[4] = endpoint: mean tumor weight, dose: 200.0 mg/kg/injection, schedule: Q01DX011 (ip), vehicle: other, higher = larger tumour
[5] = endpoint: median survival time, dose: 12.5 mg/kg/injection, schedule: Q01DX009 (ip), vehicle: Klucel (hydroxypropylcellulose) (HPC), higher = longer survival
[6] = endpoint: median survival time, dose: 50.0 mg/kg/injection, schedule: Q01DX009 (ip), vehicle: Klucel (hydroxypropylcellulose) (HPC), higher = longer survival
[7] = endpoint: mean tumor weight, dose: 12.5 mg/kg/injection, schedule: Q01DX010 (ip), vehicle: saline, higher = larger tumour
[8] = endpoint: mean tumor weight, dose: 25.0 mg/kg/injection, schedule: Q01DX010 (ip), vehicle: saline, higher = larger tumour
[9] = endpoint: mean tumor weight, dose: 50.0 mg/kg/injection, schedule: Q01DX010 (ip), vehicle: saline, higher = larger tumour

CC(=N\O)/C(C)=N/O.CC(=N\O)/C(C)=N/O.[Pd]
T/C (endpoint: median survival time, dose: 0.75 mg/kg/injection, schedule: Q01DX009 (ip), vehicle: Klucel (hydroxypropylcellulose) (HPC), higher = longer survival): 109 % of control | T/C (endpoint: median survival time, dose: 1.57 mg/kg/injection, schedule: Q01DX009 (ip), vehicle: Klucel (hydroxypropylcellulose) (HPC), higher = longer survival): 97 % of control

CC(C)=CCC/C(C)=C\CC/C(C)=C/CO
T/C [1]: 85 % of control | T/C [2]: 50 % of control | T/C (endpoint: mean tumor weight, dose: 25.0 mg/kg/injection, schedule: Q01DX011 (ip), vehicle: saline, higher = larger tumour): 67 % of control | T/C [3]: 95 % of control

OCC1=CCN2CC[C@@H](O)[C@@H]12
T/C (endpoint: mean tumor weight, dose: 25.0 mg/kg/injection, schedule: Q01DX011 (ip), vehicle: carboxymethylcellulose (CMC), higher = larger tumour): 122 % of control | T/C (endpoint: mean tumor weight, dose: 50.0 mg/kg/injection, schedule: Q01DX011 (ip), vehicle: carboxymethylcellulose (CMC), higher = larger tumour): 117 % of control | T/C (endpoint: mean tumor weight, dose: 100.0 mg/kg/injection, schedule: Q01DX011 (ip), vehicle: carboxymethylcellulose (CMC), higher = larger tumour): 111 % of control | T/C (endpoint: mean tumor weight, dose: 200.0 mg/kg/injection, schedule: Q01DX011 (ip), vehicle: carboxymethylcellulose (CMC), higher = larger tumour): 106 % of control

O=P(N1CCOCC1)(N1CC1)N1CC1
T/C (endpoint: median survival time, dose: 0.78 mg/kg/injection, schedule: Q01DX009 (ip), vehicle: saline, higher = longer survival): 100 % of control | T/C (endpoint: median survival time, dose: 1.56 mg/kg/injection, schedule: Q01DX009 (ip), vehicle: saline, higher = longer survival): 124 % of control | T/C (endpoint: median survival time, dose: 3.12 mg/kg/injection, schedule: Q01DX009 (ip), vehicle: saline, higher = longer survival): 100 % of control | T/C (endpoint: median survival time, dose: 3.13 mg/kg/injection, schedule: Q01DX009 (ip), vehicle: saline, higher = longer survival): 113 % of control | T/C (endpoint: median survival time, dose: 6.25 mg/kg/injection, schedule: Q01DX009 (ip), vehicle: saline, higher = longer survival): 97 % of control and 110 % of control | T/C (endpoint: median survival time, dose: 25.0 mg/kg/injection, schedule: Q01DX009 (ip), vehicle: saline, higher = longer survival): 107 % of control

CC(=O)O[C@H]1C(=O)[C@@]2(C)[C@H]([C@H](OC(=O)c3ccccc3)[C@]3(O)C[C@H](OC(=O)[C@H](O)[C@@H](NC(=O)c4ccccc4)c4ccccc4)C(C)=C1C3(C)C)[C@]1(OC(C)=O)CO[C@@H]1C[C@@H]2O
T/C (endpoint: median survival time, dose: 4.0 mg/kg/injection, schedule: Q01DX009 (ip), vehicle: Klucel (hydroxypropylcellulose) (HPC), higher = longer survival): 112 % of control | T/C (endpoint: median survival time, dose: 6.0 mg/kg/injection, schedule: Q01DX009 (ip), vehicle: Klucel (hydroxypropylcellulose) (HPC), higher = longer survival): 109 % of control | T/C (endpoint: median survival time, dose: 11.0 mg/kg/injection, schedule: Q04DX003 (ip), vehicle: Klucel (hydroxypropylcellulose) (HPC), higher = longer survival): 94 % of control | T/C (endpoint: median survival time, dose: 13.0 mg/kg/injection, schedule: Q01DX001 (ip), vehicle: Klucel (hydroxypropylcellulose) (HPC), higher = longer survival): 107 % of control | T/C (endpoint: median survival time, dose: 16.0 mg/kg/injection, schedule: Q04DX003 (ip), vehicle: Klucel (hydroxypropylcellulose) (HPC), higher = longer survival): 109 % of control | T/C (endpoint: median survival time, dose: 20.0 mg/kg/injection, schedule: Q01DX001 (ip), vehicle: Klucel (hydroxypropylcellulose) (HPC), higher = longer survival): 99 % of control | T/C (endpoint: median survival time, dose: 30.0 mg/kg/injection, schedule: Q01DX001 (ip), vehicle: Klucel (hydroxypropylcellulose) (HPC), higher = longer survival): 101 % of control

CNC(C)C(O)c1ccccc1 (configuration not stated)
T/C (endpoint: mean tumor weight, dose: 66.6 mg/kg/injection, schedule: Q01DX011 (ip), vehicle: saline, higher = larger tumour): 109 % of control

C[C@@H]1C[C@@H]([C@H](O)CC2CC(=O)NC(=O)C2)C(=O)[C@@H](C)C1
T/C (endpoint: mean tumor weight, dose: 15.0 mg/kg/injection, schedule: Q01DX011 (ip), vehicle: carboxymethylcellulose (CMC), higher = larger tumour): 62 % of control and 81 % of control | T/C (endpoint: mean tumor weight, dose: 30.0 mg/kg/injection, schedule: Q01DX011 (ip), vehicle: carboxymethylcellulose (CMC), higher = larger tumour): 50 % of control and 57 % of control

Clc1ncnc2c1ncn2C1CCCO1 (configuration not stated)
T/C (endpoint: mean tumor weight, dose: 25.0 mg/kg/injection, schedule: Q01DX011 (ip), vehicle: other, higher = larger tumour): 91 % of control | T/C (endpoint: mean tumor weight, dose: 50.0 mg/kg/injection, schedule: Q01DX011 (ip), vehicle: other, higher = larger tumour): 108 % of control | T/C (endpoint: mean tumor weight, dose: 100.0 mg/kg/injection, schedule: Q01DX011 (ip), vehicle: other, higher = larger tumour): 81 % of control | T/C [4]: 51 % of control and 62 % of control | T/C (endpoint: mean tumor weight, dose: 400.0 mg/kg/injection, schedule: Q01DX011 (ip), vehicle: other, higher = larger tumour): 57 % of control | T/C (endpoint: mean tumor weight, dose: 600.0 mg/kg/injection, schedule: Q01DX011 (ip), vehicle: other, higher = larger tumour): 42 % of control

Cc1cnc(/C=N\NC(N)=S)c2cccc(N)c12
T/C (endpoint: median survival time, dose: 6.25 mg/kg/injection, schedule: Q01DX009 (ip), vehicle: Klucel (hydroxypropylcellulose) (HPC), higher = longer survival): 112 % of control | T/C (endpoint: median survival time, dose: 6.25 mg/kg/injection, schedule: Q01DX009 (ip), vehicle: saline with Tween-80, higher = longer survival): 106 % of control | T/C [5]: 90 % of control | T/C (endpoint: median survival time, dose: 12.5 mg/kg/injection, schedule: Q01DX009 (ip), vehicle: saline with Tween-80, higher = longer survival): 110 % of control | T/C (endpoint: median survival time, dose: 25.0 mg/kg/injection, schedule: Q01DX009 (ip), vehicle: Klucel (hydroxypropylcellulose) (HPC), higher = longer survival): 86 % of control | T/C (endpoint: median survival time, dose: 25.0 mg/kg/injection, schedule: Q01DX009 (ip), vehicle: saline with Tween-80, higher = longer survival): 117 % of control | T/C [6]: 95 % of control

O=C(Nc1ccc(C2=NCCN2)cc1)c1ccc(C(=O)Nc2ccc(C3=NCCN3)cc2)c(Cl)c1
T/C (endpoint: mean tumor weight, dose: 5.0 mg/kg/injection, schedule: Q01DX011 (ip), vehicle: carboxymethylcellulose (CMC), higher = larger tumour): 73 % of control | T/C (endpoint: mean tumor weight, dose: 10.0 mg/kg/injection, schedule: Q01DX011 (ip), vehicle: carboxymethylcellulose (CMC), higher = larger tumour): 51 % of control | T/C (endpoint: mean tumor weight, dose: 20.0 mg/kg/injection, schedule: Q01DX011 (ip), vehicle: carboxymethylcellulose (CMC), higher = larger tumour): 81 % of control

FC(F)(F)c1cc(CN(CCCl)CCCl)cc(C(F)(F)F)c1
T/C [5]: 90 % of control | T/C [6]: 90 % of control

N#C/C(=C\c1ccncc1)c1csc2ccccc12
T/C [6]: 119 % of control | T/C (endpoint: median survival time, dose: 100.0 mg/kg/injection, schedule: Q01DX009 (ip), vehicle: Klucel (hydroxypropylcellulose) (HPC), higher = longer survival): 97 % of control | T/C (endpoint: median survival time, dose: 400.0 mg/kg/injection, schedule: Q01DX009 (ip), vehicle: Klucel (hydroxypropylcellulose) (HPC), higher = longer survival): 110 % of control

O=c1c(O)c(-c2ccccc2)oc2ccccc12
T/C (endpoint: mean tumor weight, dose: 0.19 mg/kg/injection, schedule: Q01DX011 (ip), vehicle: saline, higher = larger tumour): 79 % of control | T/C (endpoint: mean tumor weight, dose: 0.39 mg/kg/injection, schedule: Q01DX011 (ip), vehicle: saline, higher = larger tumour): 50 % of control | T/C (endpoint: mean tumor weight, dose: 0.78 mg/kg/injection, schedule: Q01DX011 (ip), vehicle: saline, higher = larger tumour): 105 % of control | T/C (endpoint: mean tumor weight, dose: 1.56 mg/kg/injection, schedule: Q01DX011 (ip), vehicle: saline, higher = larger tumour): 52 % of control and 58 % of control | T/C (endpoint: mean tumor weight, dose: 3.13 mg/kg/injection, schedule: Q01DX011 (ip), vehicle: saline, higher = larger tumour): 78 % of control | T/C [1]: 97 % of control | T/C [7]: 67 % of control | T/C [2]: 103 % of control | T/C [8]: 82 % of control | T/C [9]: 104 % of control | T/C (endpoint: mean tumor weight, dose: 100.0 mg/kg/injection, schedule: Q01DX010 (ip), vehicle: saline, higher = larger tumour): 83 % of control

Nc1nc2nc[nH]c2c(=O)[nH]1
T/C (endpoint: mean tumor weight, dose: 6.25 mg/kg/injection, schedule: Q01DX010 (ip), vehicle: saline, higher = larger tumour): 73 % of control | T/C [7]: 71 % of control | T/C [8]: 96 % of control | T/C [9]: 71 % of control | T/C [3]: 82 % of control | T/C (endpoint: mean tumor weight, dose: 100.0 mg/kg/injection, schedule: Q01DX011 (ip), vehicle: saline, higher = larger tumour): 80 % of control

O=C1c2ccccc2CCc2ccccc21
T/C (endpoint: mean tumor weight, dose: 133.0 mg/kg/injection, schedule: Q01DX011 (ip), vehicle: other, higher = larger tumour): 91 % of control | T/C [4]: 173 % of control | T/C (endpoint: mean tumor weight, dose: 450.0 mg/kg/injection, schedule: Q01DX011 (ip), vehicle: other, higher = larger tumour): 74 % of control

N#CCCN(Cc1ccccc1)C(N)=O
T/C (endpoint: mean tumor weight, dose: 0.5 mg/kg/injection, schedule: Q01DX011 (ip), vehicle: other, higher = larger tumour): 73 % of control | T/C (endpoint: mean tumor weight, dose: 1.0 mg/kg/injection, schedule: Q01DX011 (ip), vehicle: other, higher = larger tumour): 68 % of control | T/C (endpoint: mean tumor weight, dose: 2.0 mg/kg/injection, schedule: Q01DX011 (ip), vehicle: other, higher = larger tumour): 48 % of control | T/C (endpoint: mean tumor weight, dose: 4.0 mg/kg/injection, schedule: Q01DX011 (ip), vehicle: other, higher = larger tumour): 55 % of control

COc1ccccc1NC(=O)CSC(N)=O
T/C (endpoint: mean tumor weight, dose: 125.0 mg/kg/injection, schedule: Q01DX011 (ip), vehicle: carboxymethylcellulose (CMC), higher = larger tumour): 97 % of control | T/C (endpoint: mean tumor weight, dose: 250.0 mg/kg/injection, schedule: Q01DX011 (ip), vehicle: carboxymethylcellulose (CMC), higher = larger tumour): 47 % of control

CC(C)NCC(=O)c1ccc(O)c(O)c1
T/C (endpoint: median survival time, dose: 5.0 mg/kg/injection, schedule: Q01DX009 (ip), vehicle: saline, higher = longer survival): 107 % of control | T/C (endpoint: median survival time, dose: 10.0 mg/kg/injection, schedule: Q01DX009 (ip), vehicle: saline, higher = longer survival): 114 % of control | T/C (endpoint: median survival time, dose: 20.0 mg/kg/injection, schedule: Q01DX009 (ip), vehicle: saline, higher = longer survival): 114 % of control | T/C (endpoint: median survival time, dose: 40.0 mg/kg/injection, schedule: Q01DX009 (ip), vehicle: saline, higher = longer survival): 111 % of control
